# Tested on: Transport facilitation protein genes
# Assay: DNA chip mRNA expression in yeast, transport facilitation protein genes (Table 5)
# Type: cell-based, Saccharomyces cerevisiae S288C
# Procedure, shortened: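 Chemical exposure: 2 h, log-phase S. cerevisiae S288C, YPD, 25° C., dose set to inhibit growth without death. Profiling: mRNA labeled by reverse transcription with Cy3- or Cy5-dUTP, hybridized to whole-genome array. Output: fluorescence ratio against untreated culture.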
structure (smiles),measurement,setting,value
"CN(C)C(=S)SSC(=S)N(C)C [(10), Tetramethylthiuram disulfide]",The level of expressed mRNA in the presence of chemical substance/The level of expressed mRNA in the absence of chemical substance,yeast gene YBL030C,0.9
same,The level of expressed mRNA in the presence of chemical substance/The level of expressed mRNA in the absence of chemical substance,yeast gene YBL099W,0.7
same,The level of expressed mRNA in the presence of chemical substance/The level of expressed mRNA in the absence of chemical substance,yeast gene YBR052C,2.5
same,The level of expressed mRNA in the presence of chemical substance/The level of expressed mRNA in the absence of chemical substance,yeast gene YBR068C,2.5
same,The level of expressed mRNA in the presence of chemical substance/The level of expressed mRNA in the absence of chemical substance,yeast gene YBR127C,1.3
same,The level of expressed mRNA in the presence of chemical substance/The level of expressed mRNA in the absence of chemical substance,yeast gene YBR132C,1.1
same,The level of expressed mRNA in the presence of chemical substance/The level of expressed mRNA in the absence of chemical substance,yeast gene YBR207W,2.2
same,The level of expressed mRNA in the presence of chemical substance/The level of expressed mRNA in the absence of chemical substance,yeast gene YBR293W,2.4
same,The level of expressed mRNA in the presence of chemical substance/The level of expressed mRNA in the absence of chemical substance,yeast gene YBR294W,5.2
same,The level of expressed mRNA in the presence of chemical substance/The level of expressed mRNA in the absence of chemical substance,yeast gene YBR295W,3.3
same,The level of expressed mRNA in the presence of chemical substance/The level of expressed mRNA in the absence of chemical substance,yeast gene YBR298C,1.1
same,The level of expressed mRNA in the presence of chemical substance/The level of expressed mRNA in the absence of chemical substance,yeast gene YCL025C,0.3
same,The level of expressed mRNA in the presence of chemical substance/The level of expressed mRNA in the absence of chemical substance,yeast gene YCL038C,0.9
same,The level of expressed mRNA in the presence of chemical substance/The level of expressed mRNA in the absence of chemical substance,yeast gene YCR024C-A,0.7
same,The level of expressed mRNA in the presence of chemical substance/The level of expressed mRNA in the absence of chemical substance,yeast gene YCR037C,0.6
same,The level of expressed mRNA in the presence of chemical substance/The level of expressed mRNA in the absence of chemical substance,yeast gene YCR098C,2.4
same,The level of expressed mRNA in the presence of chemical substance/The level of expressed mRNA in the absence of chemical substance,yeast gene YDL128W,0.7
same,The level of expressed mRNA in the presence of chemical substance/The level of expressed mRNA in the absence of chemical substance,yeast gene YDL198C,2.7
same,The level of expressed mRNA in the presence of chemical substance/The level of expressed mRNA in the absence of chemical substance,yeast gene YDL206W,1.5
same,The level of expressed mRNA in the presence of chemical substance/The level of expressed mRNA in the absence of chemical substance,yeast gene YDL210W,1.4
same,The level of expressed mRNA in the presence of chemical substance/The level of expressed mRNA in the absence of chemical substance,yeast gene YDL245C,2.8
same,The level of expressed mRNA in the presence of chemical substance/The level of expressed mRNA in the absence of chemical substance,yeast gene YDR038C,0.9
same,The level of expressed mRNA in the presence of chemical substance/The level of expressed mRNA in the absence of chemical substance,yeast gene YDR039C,1.0
same,The level of expressed mRNA in the presence of chemical substance/The level of expressed mRNA in the absence of chemical substance,yeast gene YDR086C,0.8
same,The level of expressed mRNA in the presence of chemical substance/The level of expressed mRNA in the absence of chemical substance,yeast gene YDR270W,3.6
same,The level of expressed mRNA in the presence of chemical substance/The level of expressed mRNA in the absence of chemical substance,yeast gene YDR298C,1.6
same,The level of expressed mRNA in the presence of chemical substance/The level of expressed mRNA in the absence of chemical substance,yeast gene YDR342C,2.2
same,The level of expressed mRNA in the presence of chemical substance/The level of expressed mRNA in the absence of chemical substance,yeast gene YDR343C,2.1
same,The level of expressed mRNA in the presence of chemical substance/The level of expressed mRNA in the absence of chemical substance,yeast gene YDR345C,1.1
same,The level of expressed mRNA in the presence of chemical substance/The level of expressed mRNA in the absence of chemical substance,yeast gene YDR387C,2.0
same,The level of expressed mRNA in the presence of chemical substance/The level of expressed mRNA in the absence of chemical substance,yeast gene YDR497C,0.8
same,The level of expressed mRNA in the presence of chemical substance/The level of expressed mRNA in the absence of chemical substance,yeast gene YEL027W,1.1
same,The level of expressed mRNA in the presence of chemical substance/The level of expressed mRNA in the absence of chemical substance,yeast gene YEL063C,1.7
same,The level of expressed mRNA in the presence of chemical substance/The level of expressed mRNA in the absence of chemical substance,yeast gene YEL065W,4.9
same,The level of expressed mRNA in the presence of chemical substance/The level of expressed mRNA in the absence of chemical substance,yeast gene YER053C,3.9
same,The level of expressed mRNA in the presence of chemical substance/The level of expressed mRNA in the absence of chemical substance,yeast gene YER119C,1.2
same,The level of expressed mRNA in the presence of chemical substance/The level of expressed mRNA in the absence of chemical substance,yeast gene YFL011W,1.6
same,The level of expressed mRNA in the presence of chemical substance/The level of expressed mRNA in the absence of chemical substance,yeast gene YFL041W,5.1
same,The level of expressed mRNA in the presence of chemical substance/The level of expressed mRNA in the absence of chemical substance,yeast gene YFL050C,1.6
same,The level of expressed mRNA in the presence of chemical substance/The level of expressed mRNA in the absence of chemical substance,yeast gene YFL054C,2.3
same,The level of expressed mRNA in the presence of chemical substance/The level of expressed mRNA in the absence of chemical substance,yeast gene YFL055W,6.5
same,The level of expressed mRNA in the presence of chemical substance/The level of expressed mRNA in the absence of chemical substance,yeast gene YGL006W,1.2
same,The level of expressed mRNA in the presence of chemical substance/The level of expressed mRNA in the absence of chemical substance,yeast gene YGL008C,0.4
same,The level of expressed mRNA in the presence of chemical substance/The level of expressed mRNA in the absence of chemical substance,yeast gene YGL104C,2.1
same,The level of expressed mRNA in the presence of chemical substance/The level of expressed mRNA in the absence of chemical substance,yeast gene YGL167C,1.1
same,The level of expressed mRNA in the presence of chemical substance/The level of expressed mRNA in the absence of chemical substance,yeast gene YGL255W,5.0
same,The level of expressed mRNA in the presence of chemical substance/The level of expressed mRNA in the absence of chemical substance,yeast gene YGR055W,2.4
same,The level of expressed mRNA in the presence of chemical substance/The level of expressed mRNA in the absence of chemical substance,yeast gene YGR065C,2.6
same,The level of expressed mRNA in the presence of chemical substance/The level of expressed mRNA in the absence of chemical substance,yeast gene YGR082W,0.9
same,The level of expressed mRNA in the presence of chemical substance/The level of expressed mRNA in the absence of chemical substance,yeast gene YGR096W,0.8
same,The level of expressed mRNA in the presence of chemical substance/The level of expressed mRNA in the absence of chemical substance,yeast gene YGR138C,1.0
same,The level of expressed mRNA in the presence of chemical substance/The level of expressed mRNA in the absence of chemical substance,yeast gene YGR191W,0.7
same,The level of expressed mRNA in the presence of chemical substance/The level of expressed mRNA in the absence of chemical substance,yeast gene YGR197C,3.2
same,The level of expressed mRNA in the presence of chemical substance/The level of expressed mRNA in the absence of chemical substance,yeast gene YGR224W,0.9
same,The level of expressed mRNA in the presence of chemical substance/The level of expressed mRNA in the absence of chemical substance,yeast gene YGR260W,0.4
